Test results: patent US8586588B2, “Aryl pyridazinone derivatives and their use as H3 receptor ligands” (Cephalon, Inc., priority 2006, dated 2013)

Columns and labels:
human H3 receptor = molecular target: T1, human H3 receptor (Homo sapiens, UniProt Q9Y5N1); experiment: Human H3 radioligand binding ([3H]-N-alpha-methylhistamine, CHO cell membranes, SPA); conditions: Table B, binding constant as letter class
T1 construct: expressed in transfected cells
Outline: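 Scintillation proximity format: bead-proximal [3H]-N-alpha-methylhistamine (approximately 1 nM final) bound to human H3 receptor in CHO membranes was counted after 4 h at room temperature, light-protected. Buffer was pH 7.4 Tris/MgCl2/BSA; test compounds spanned 0.01 nM-30 μM; 10 μM clobenpropit set non-specific binding.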

[1] = molecular target: T2, rat histamine H3 receptor (Rattus norvegicus, UniProt Q9QYN8); experiment: Rat H3 radioligand binding ([3H]-N-alpha-methylhistamine, CHO-A3 cell membranes, SPA); conditions: Table B, binding constant as letter class; read-out: rat H3 Ki
T2 construct: encoding the entire 445-amino-acid rat histamine H3 receptor; expressed in transfected cells
T2 sequence (Q9QYN8 whole entry): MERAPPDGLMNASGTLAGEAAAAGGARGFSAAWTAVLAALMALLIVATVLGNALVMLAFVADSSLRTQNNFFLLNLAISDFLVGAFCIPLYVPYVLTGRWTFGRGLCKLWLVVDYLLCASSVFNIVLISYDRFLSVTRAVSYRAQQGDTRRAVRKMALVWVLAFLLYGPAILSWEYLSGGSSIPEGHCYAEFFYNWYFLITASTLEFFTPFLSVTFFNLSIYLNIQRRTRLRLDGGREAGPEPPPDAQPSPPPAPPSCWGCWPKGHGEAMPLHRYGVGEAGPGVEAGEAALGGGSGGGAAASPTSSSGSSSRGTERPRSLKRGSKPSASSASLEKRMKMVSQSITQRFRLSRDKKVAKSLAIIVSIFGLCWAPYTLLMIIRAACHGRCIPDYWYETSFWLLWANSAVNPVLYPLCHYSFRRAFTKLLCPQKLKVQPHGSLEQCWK
Outline: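 Scintillation proximity displacement of about 1 nM [3H]-N-alpha-methylhistamine, test compound 0.01 nM-30 μM, 4 h, room temperature, in the dark. Receptor source: rat H3 stably transfected into CHO-A3 cells, 10 μg membrane protein, Tris-HCl pH 7.4/MgCl2/BSA buffer. Nonspecific binding defined by 10 μM clobenpropit.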

T1 sequence (Q9Y5N1 whole entry): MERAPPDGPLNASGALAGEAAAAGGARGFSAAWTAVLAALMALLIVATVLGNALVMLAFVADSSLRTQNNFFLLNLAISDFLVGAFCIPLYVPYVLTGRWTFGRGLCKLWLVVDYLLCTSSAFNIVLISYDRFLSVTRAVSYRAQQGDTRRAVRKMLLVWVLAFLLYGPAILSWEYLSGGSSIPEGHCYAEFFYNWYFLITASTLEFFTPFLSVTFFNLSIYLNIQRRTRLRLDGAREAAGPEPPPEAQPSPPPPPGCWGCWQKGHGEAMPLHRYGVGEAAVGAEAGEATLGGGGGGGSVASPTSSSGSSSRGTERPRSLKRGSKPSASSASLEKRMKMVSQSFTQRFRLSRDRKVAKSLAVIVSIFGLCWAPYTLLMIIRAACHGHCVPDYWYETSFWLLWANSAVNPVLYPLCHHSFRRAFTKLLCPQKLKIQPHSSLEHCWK

melting point [°C]	Ki (human H3 receptor) [nM]	Ki [1] [nM]	Structure (SMILES)
86 to 89	0.1 to 100	0.1 to 100	C[C@@H]1CCCN1CCCOc1ccc(-n2nc(-c3ccccc3)ccc2=O)cc1 [Example 200, 2-{4-[3-((R)-2-Methyl-pyrrolidin-1-yl)-propoxy]-phenyl}-6-phenyl-2H-pyridazin-3-one]
70 to 73	0.1 to 100	0.1 to 100	C[C@@H]1CCCN1CCCOc1ccc(-n2ncc3ccccc3c2=O)cc1 [Example 202, 2-{4-[3-((R)-2-Methyl-pyrrolidin-1-yl)-propoxy]-phenyl}-2H-phthalazin-1-one]
87 to 90	0.1 to 100	0.1 to 100	C[C@@H]1CCCN1CCCOc1ccc(-n2nc(-c3cccnc3)ccc2=O)cc1 [Example 204, 2-{4-[3-((R)-2-Methyl-pyrrolidin-1-yl)-propoxy]-phenyl}-6-pyridin-3-yl-2H-pyridazin-3-one]
178 to 179	0.1 to 100	0.1 to 100	Cc1onc2c(=O)[nH]nc(-c3ccc(OCCCN4CCCCC4)cc3)c12 [Example 207, 3-Methyl-4-[4-(3-piperidin-1-yl-propoxy)-phenyl]-6H-isoxazolo[3,4-d]pyridazin-7-one]
169 to 170	0.1 to 100	0.1 to 100	Cc1onc2c(=O)[nH]nc(-c3ccc(OCCCN4CCC[C@H]4C)cc3)c12 [Example 208, 3-Methyl-4-{4-[3-((R)-2-methyl-pyrrolidin-1-yl)-propoxy]-phenyl}-6H-isoxazolo[3,4-d]pyridazin-7-one]
253 to 255	0.1 to 100	0.1 to 100	Cc1cc(=O)[nH]nc1-c1ccc(OCCCN2CCC[C@H]2C)cc1 [Example 210, 5-Methyl-6-{4-[3-((R)-2-methyl-pyrrolidin-1-yl)-propoxy]-phenyl}-2H-pyridazin-3-one]
272 to 275	0.1 to 100	0.1 to 100	CCc1cc(=O)[nH]nc1-c1ccc(OCCCN2CCC[C@H]2C)cc1 [Example 211, 5-Ethyl-6-{4-[3-((R)-2-methyl-pyrrolidin-1-yl)-propoxy]-phenyl}-2H-pyridazin-3-one]
220 to 222	0.1 to 100	0.1 to 100	C[C@@H]1CCCN1CCCOc1ccc(-c2ccc(=O)[nH]n2)c(F)c1 [Example 214, 6-{2-Fluoro-4-[3-((R)-2-methyl-pyrrolidin-1-yl)-propoxy]-phenyl}-2H-pyridazin-3-one]
> 300	0.1 to 100	0.1 to 100	O=C1CC2CCc3cc(OC4CCN(C5CCC5)CC4)ccc3C2=NN1 (stereo not drawn) [Example 220, 8-(1-Cyclobutyl-piperidin-4-yloxy)-4,4a,5,6-tetrahydro-2H-benzo[h]cinnolin-3-one]
> 300	0.1 to 100	0.1 to 100	O=c1ccc(-c2ccc(OC3CCN(C4CCC4)CC3)cc2F)n[nH]1 [Example 221, 6-[4-(1-Cyclobutyl-piperidin-4-yloxy)-2-fluoro-phenyl]-2H-pyridazin-3-one]
> 300	0.1 to 100	0.1 to 100	Cc1cc(=O)[nH]nc1-c1ccc(OC2CCN(C3CCC3)CC2)cc1 [Example 222, 6-[4-(1-Cyclobutyl-piperidin-4-yloxy)-phenyl]-5-methyl-2H-pyridazin-3-one]
183 to 185	0.1 to 100	0.1 to 100	COCn1ncc(-c2ccc(OCCCN3CCC[C@H]3C)cc2)cc1=O [Example 224, 2-Methoxymethyl-5-{4-[3-((R)-2-methyl-pyrrolidin-1-yl)-propoxy]-phenyl}-2H-pyridazin-3-one]
145 to 148	0.1 to 100	0.1 to 100	C[C@H](COc1ccc(-c2cn[nH]c(=O)c2)cc1)CN1CCCCC1 [Example 227, 5-[4-((S)-2-Methyl-3-piperidin-1-yl-propoxy)-phenyl]-2H-pyridazin-3-one]
160 to 163	0.1 to 100	101 to 500	C[C@@H](COc1ccc(-c2cn[nH]c(=O)c2)cc1)CN1CCCCC1 [Example 228, 5-[4-((R)-2-Methyl-3-piperidin-1-yl-propoxy)-phenyl]-2H-pyridazin-3-one]
175 to 180	0.1 to 100	501 to 1000	C[C@@H]1CCCN1CCCOc1c(Br)cc(-c2cn[nH]c(=O)c2)cc1Br [Example 229]
112 to 113	0.1 to 100	101 to 500	Cc1cc(OCCCN2CCCCC2)ccc1-c1cn[nH]c(=O)c1 [Example 233, 5-[2-Methyl-4-(3-piperidin-1-yl-propoxy)-phenyl]-2H-pyridazin-3-one]
154 to 157	0.1 to 100	0.1 to 100	O=c1ccc(-c2ccc(OCCCN3CCCC3)cc2)n[nH]1 [Example 240, 6-[4-(3-Pyrrolidin-1-yl-propoxy)-phenyl]-2H-pyridazin-3-one]
< 50	101 to 500	101 to 500	CN(CCCOc1ccc(-c2ccc(=O)[nH]n2)cc1)C1CCC1 [Example 241, 6-{4-[3-(Cyclobutyl-methyl-amino)-propoxy]-phenyl}-2H-pyridazin-3-one]
95 to 98	0.1 to 100	101 to 500	CN(CCCOc1ccc(-c2ccc(=O)[nH]n2)cc1)C1CCCC1 [Example 242, 6-{4-[3-(Cyclopentyl-methyl-amino)-propoxy]-phenyl}-2H-pyridazin-3-one]
79 to 81	0.1 to 100	0.1 to 100	O=C1NN=C(c2ccc(OC3CCN(C4CCC4)CC3)cc2)C2CC12 (stereo not drawn) [Example 244, 5-[4-(1-Cyclobutyl-piperidin-4-yloxy)-phenyl]-3,4-diaza-bicyclo[4.1.0]hept-4-en-2-one]
112 to 115	0.1 to 100	0.1 to 100	C[C@H](COc1ccc(C2=NNC(=O)C3CC23)cc1)CN1CCC[C@H]1C (stereo partly drawn) [Example 245]
185	101 to 500	101 to 500	O=c1ccc(-c2ccc(OCC(O)CN3CCCCC3)cc2)n[nH]1 (stereo not drawn) [Example 255, 6-[4-(2-Hydroxy-3-piperidin-1-yl-propoxy)-phenyl]-2H-pyridazin-3-one]
153	0.1 to 100	101 to 500	C[C@@H]1CCCN1CC(O)COc1ccc(-c2ccc(=O)[nH]n2)cc1 (stereo partly drawn) [Example 256, 6-{4-[2-Hydroxy-3-((R)-2-methyl-pyrrolidin-1-yl)-propoxy]-phenyl}-2H-pyridazin-3-one]
156	0.1 to 100	0.1 to 100	C[C@@H]1CCCN1C[C@H](O)COc1ccc(-c2ccc(=O)[nH]n2)cc1 [Example 257, 6-{4-[(S)-2-Hydroxy-3-((R)-2-methyl-pyrrolidin-1-yl)-propoxy]-phenyl}-2H-pyridazin-3-one]
147	0.1 to 100	0.1 to 100	C[C@@H]1CCCN1C[C@@H](O)COc1ccc(-c2ccc(=O)[nH]n2)cc1 [Example 258, 6-{4-[(R)-2-Hydroxy-3-((R)-2-methyl-pyrrolidin-1-yl)-propoxy]-phenyl}-2H-pyridazin-3-one]
167	101 to 500	101 to 500	O=c1ccc(-c2ccc(OC[C@H](O)CN3CCCCC3)cc2)n[nH]1 [Example 259, 6-[4-((R)-2-Hydroxy-3-piperidin-1-yl-propoxy)-phenyl]-2H-pyridazin-3-one]
